US10487143B2, “Vaccines against HER3 antigens and methods of using the same” (Duke University, priority 2016, dated 2019)

What was measured:
[1] = system: HLA-A*0201-positive, but HER3-negative LNCaP cells; test: Human CTL (51Cr release) assay on LNCaP target cells; format: cell-based; conditions: effector to target ratio 25 to 1, FIG. 2B
Description: (§1) Immature human DCs (Dendritic cells) were loaded for 2 hours at 10 μM with peptides, washed and then co-cultured with untouched autologous T cells (isolated via magnetic bead-based separation) at a DC to T-cell ratio of 1:20 in complete RPMI media supplemented with 12.5 μg/mL pIC, (polyinosinic-polycytidylic acid, Sigma) and 1.0 μg/mL recombinant CD40L plus 1.0 μg/mL Enhancer (Alexis Biochemicals). 20 U/ml of recombinant human Interleukin-2 (IL-2) were added after 3 days and every other day thereafter. Cells were re-stimulated twice after 7 days (DC to T cell ratio of 1:10) and analyzed for cytolytic activity 10 days after the last re-stimulation.
2×10^6 target cells were harvested, washed, counted, and labeled with 100 μCi of Na2^51CrO4 (Amersham) in 0.5 ml complete RPMI at 37° C. for 1.5 h. Exogenous loading of cells with 10 μM synthetic peptide was performed simultaneously with labeling reactions. CTLs (untouched CD8^+ T cells isolated via magnetic-bead-based techniques (Miltenyi Biotec)) were washed, counted, and diluted to the desired density in complete RPMI 1640 and plated in duplicate wells in a round-bottomed, 96-well plate. Target cells were washed three times, resuspended in complete RPMI and incubated at 37° C. and 5% CO2. […] Supernatants were harvested and counted in a gamma counter. Duplicate wells were averaged, and the percentage of specific lysis was calculated as: […]

[2] = system: murine CD8+ T cells stimulated with peptide-pulsed T2 cells; test: IFN-γ ELISPOT after peptide vaccination of HLA-A*0201-transgenic mice; format: in vivo; conditions: mice immunized with mixture of 100 μg of each peptide in PBS:Montanide ISA 51, 3 weekly vaccinations; CD8+ T cells stimulated with the same epitope on T2 cells; FIG. 1
Excerpt: To further validate the identified HER-3-derived peptide epitopes (SEQ ID NO: 1 and SEQ ID NO: 3), we vaccinated HLA-A*0201-transgenic mice with these peptides. Female CB6F1-Tg(HLA-A*0201/H2-K^b) A*0201 mice were purchased from Charles River Laboratories (Raleigh, N.C.). These animals carry a transgene consisting of fragments of the human HLA-A*0201 gene and mouse H2-K^b gene which encodes a chimeric class I molecule consisting of the human HLA-A2.1 leader, α1 and α2 domains ligated to the murine α3, transmembrane and cytoplasmic H2-K^b domain Mice were maintained in a specific pathogen-free environment. All mice were used at 8 to 12 weeks of age. Animals were housed in a specific pathogen-free environment at the animal facility of the DUKE University Medical Center. All mice used in this study were cared for in accordance with the Guide for Humane care and use of Laboratory Animals published by the National Institutes of Health. All the animal experimental protocols were approved by the Duke University Medical Center Institutional Animal Care and Use Committee.
Mice were immunized with a mixture of 100 μg of each peptide emulsified in PBS:Montanide ISA 51 (1:1) (SEPPIC, France). […]
ELISPOT assays were performed without re-stimulation of cells. […] Spots of the dried plate were counted using an ImmunoScan ELISPOT reader (C.T.L., Cellular Technology Ltd.).

[3] = system: HLA-A*0201-positive- and HER3-positive MCF-7 cells; test: Human CTL (51Cr release) assay on MCF-7 target cells; format: cell-based; conditions: effector to target ratio 25 to 1; for killing of MCF-7 cells by peptide-induced CTL: CTL induced with peptide-loaded (10 μM) human DCs, unloaded MCF-7 targets, FIGS. 2A-2B
Description: as §1
2×10^6 target cells were harvested, washed, counted, and labeled with 100 μCi of Na2^51CrO4 (Amersham) in 0.5 ml complete RPMI at 37° C. for 1.5 h. Exogenous loading of cells with 10 μM synthetic peptide was performed simultaneously with labeling reactions. CTLs (untouched CD8^+ T cells isolated via magnetic-bead-based techniques (Miltenyi Biotec)) were washed, counted, and diluted to the desired density in complete RPMI 1640 and plated in duplicate wells in a round-bottomed, 96-well plate. Target cells were washed three times, resuspended in complete RPMI and incubated at 37° C. and 5% CO2. After 1 h, cells were washed one more time, diluted to 10^4 cells/ml and co-incubated with CTLs at indicated effector to target ratio of 25 to 1. The plates were spun briefly at 800×g and incubated for 4-5 h at 37° C. Supernatants were harvested and counted in a gamma counter. Duplicate wells were averaged, and the percentage of specific lysis was calculated as: […]

| Sequence | killing of epitope-loaded LNCaP cells by peptide-specific CTL ([1]; LNCaP targets loaded with 10 μM HER3943-954) | killing of LNCaP cells by peptide-specific CTL ([1]; unloaded HER3-negative LNCaP targets) | induction of epitope-specific CD8+ T cells producing IFN-γ (ELISPOT) [2] | killing of MCF-7 cells by peptide-induced CTL [3] | killing of epitope-loaded MCF-7 cells by peptide-induced CTL ([3]; target cells loaded with 10 μM HER3943-954, FIG. 2B) |
| --- | --- | --- | --- | --- | --- |
| VMVKCWMIDENI (Synthetic HER3 Antigen 3) [HER3943-954] | Killing | did not kill | induced epitope-specific CD8^+ T cells | killed MCF-7 cells efficiently | cytolytic activity could further be enhanced |
| LAEVPDLLE (Synthetic HER3 Antigen 1) [HER3917-925] |  |  | failed to induce CD8^+ T cells that produced IFN-γ | failed to induce HERS-specific CTLs |  |
